Data as given in patent US20030224942A1, “Alkylamino-1,3,5-triazines, processes for their preparation and their use as herbicides and plant growth regulators” (priority 2001, published 2003).

Experiments:
[1] = system: Chenopodium spp., Papaver spp., Polygonum spp., Veronica spp. or Viola spp.; test: Post-emergence effect on weeds (greenhouse pot test, visual scoring); assay type: in vivo, monocotyledonous and dicotyledonous weeds; details: treated at three-leaf stage; visual scoring after about 3 to 4 weeks; application rate of 0.5 kg and less of active substance per hectare
[2] = system: Cyperus spp., Echinochloa spp., Digitaria spp., Sagitaria spp. and Scirpus spp.; test: Action on harmful plants in rice (paddy rice conditions, visual scoring); assay type: in vivo, typical rice weeds (gramineous and broad-leaved); details: applied into the dammed water, visual scoring about three weeks after application
How it was run: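 Under paddy conditions with 2-3 cm dammed water, transplanted and sown rice plus weeds were treated at three-leaf stage (E. crus-galli at 1.5 leaves). Pots stayed in greenhouse under optimum growth conditions for the test period, with visual assessment of damage.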

CC#Cc1cccc(C(Nc2nc(N)nc(C(F)CC)n2)C2CC2)c1 (centres unmarked) [Product P29.1582]
herbicidal activity post-emergence against harmful plants [1]: very good herbicidal activity | herbicidal activity against harmful plants which are typical for rice crops [2]: very good herbicidal activity
